From ChEMBL document CHEMBL1201862, “PubChem BioAssay data set” (2004)
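Step 1: Grow cells in 96-well plates. Step 2: Expose to compound for 48 hours at 5 concentrations. Step 3: Interpolate endpoints linearly; if unreached, use highest concentration. GI50 is the concentration that inhibits growth by half.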 The source made the active and inactive calls. Rule as the data show it: active = GI50 up to about 1.1 µM and inactive = higher.

What was measured:
Experiment in all cases: NCI tumour cell line growth inhibition, 48 h
[1] = system: SK-OV-3
[2] = system: M14
[3] = system: NCI/ADR-RES
[4] = system: 786-0
[5] = system: UACC-257
[6] = system: MOLT-4
[7] = system: EKVX
[8] = system: SK-MEL-5
[9] = system: NCI-H522
[10] = system: HL-60
[11] = system: Hs-578T
[12] = system: SK-MEL-2
[13] = system: MDA-MB-435
[14] = system: MDA-MB-231
[15] = system: OVCAR-5
[16] = system: KM12
[17] = system: HCC 2998
[18] = system: RPMI-8226
[19] = system: CCRF-CEM
[20] = system: IGROV-1
[21] = system: BT-549
[22] = system: TK-10
[23] = system: A549
[24] = system: NCI-H460
[25] = system: U-251
[26] = system: K562
[27] = system: SF-268
[28] = system: SNB-19
[29] = system: MCF7
[30] = system: SK-MEL-28
[31] = system: HCT-15
[32] = system: UACC-62
[33] = system: LOX IMVI
[34] = system: ACHN
[35] = system: NCI-H23
[36] = system: DU-145
[37] = system: SF-295
[38] = system: OVCAR-8
[39] = system: PC-3
[40] = system: SF-539
[41] = system: SW-620
[42] = system: HCT-116
[43] = system: NCI-H226
[44] = system: COLO 205
[45] = system: SN12C
[46] = system: OVCAR-3
[47] = system: UO-31
[48] = system: HOP-92
[49] = system: HT-29
[50] = system: T47D
[51] = system: OVCAR-4
[52] = system: Malme-3M
[53] = system: CAKI-1
[54] = system: A498
[55] = system: HOP-62
[56] = system: SR
[57] = system: SNB-75

CCCCc1ccc(Nc2nc(S)c3[nH]cnc3n2)cc1
GI50 [1]: > 10 µM (inactive)
GI50 [2]: 24.2 µM (inactive)
GI50 [3]: 13.4 µM (inactive)
GI50 [4]: 33.2 µM (inactive)
GI50 [5]: 21.6 µM (inactive)
GI50 [6]: 1.43 µM (inactive)
GI50 [7]: > 10 µM (inactive)
GI50 [8]: 12.5 µM (inactive)
GI50 [9]: 10.9 µM (inactive)
GI50 [10]: 27.9 µM (inactive)
GI50 [11]: 21.5 µM (inactive)
GI50 [12]: 17 µM (inactive)
GI50 [13]: 17.1 µM (inactive)
GI50 [14]: 28.9 µM (inactive)
GI50 [15]: 17.2 µM (inactive)
GI50 [16]: 11.4 µM (inactive)
GI50 [17]: 25.5 µM (inactive)
GI50 [18]: 44.5 µM (inactive)
GI50 [19]: 21.1 µM (inactive)
GI50 [20]: 18.7 µM (inactive)
GI50 [21]: 17.4 µM (inactive)
GI50 [22]: 20.6 µM (inactive)
GI50 [23]: 36.8 µM (inactive)
GI50 [24]: 33.3 µM (inactive)
GI50 [25]: 24.7 µM (inactive)
GI50 [26]: 43.4 µM (inactive)
GI50 [27]: 50.7 µM (inactive)
GI50 [28]: 22.8 µM (inactive)
GI50 [29]: > 10 µM (inactive)
GI50 [30]: 22.9 µM (inactive)
GI50 [31]: 37.5 µM
GI50 [32]: 18.5 µM (inactive)
GI50 [33]: 17.5 µM (inactive)
GI50 [34]: 23.1 µM (inactive)
GI50 [35]: 18.7 µM (inactive)
GI50 [36]: 35.5 µM (inactive)
GI50 [37]: 25.1 µM (inactive)
GI50 [38]: > 10 µM (inactive)
GI50 [39]: 29.7 µM (inactive)
GI50 [40]: 20.3 µM (inactive)
GI50 [41]: 15.4 µM (inactive)
GI50 [42]: 25.5 µM (inactive)
GI50 [43]: 16.3 µM (inactive)
GI50 [44]: 16.6 µM (inactive)
GI50 [45]: 22.8 µM (inactive)
GI50 [46]: 16.1 µM (inactive)
GI50 [47]: 28.1 µM (inactive)
GI50 [48]: 32.4 µM (inactive)
GI50 [49]: 10.3 µM (inactive)
GI50 [50]: 15.6 µM (inactive)
GI50 [51]: 23.9 µM (inactive)
GI50 [52]: 22 µM (inactive)
GI50 [53]: 34.5 µM (inactive)
GI50 [54]: 16.6 µM (inactive)

S=c1sc2c(s1)SCc1cccc(n1)CSc1sc(=S)sc1SCc1cccc(n1)CS2
GI50 [1]: > 100 µM (inactive)
GI50 [2]: > 100 µM (inactive)
GI50 [3]: > 100 µM (inactive)
GI50 [4]: > 100 µM (inactive)
GI50 [5]: > 100 µM (inactive)
GI50 [6]: > 100 µM (inactive)
GI50 [7]: > 100 µM (inactive)
GI50 [55]: > 100 µM (inactive)
GI50 [8]: > 100 µM (inactive)
GI50 [9]: > 100 µM (inactive)
GI50 [10]: > 100 µM (inactive)
GI50 [56]: > 100 µM (inactive)
GI50 [11]: > 100 µM (inactive)
GI50 [12]: > 100 µM (inactive)
GI50 [13]: > 100 µM (inactive)
GI50 [14]: > 100 µM (inactive)
GI50 [15]: > 100 µM (inactive)
GI50 [16]: > 100 µM (inactive)
GI50 [17]: > 100 µM (inactive)
GI50 [18]: > 100 µM (inactive)
GI50 [19]: > 100 µM (inactive)
GI50 [20]: > 100 µM (inactive)
GI50 [21]: > 100 µM (inactive)
GI50 [22]: > 100 µM (inactive)
GI50 [23]: > 100 µM (inactive)
GI50 [24]: > 100 µM (inactive)
GI50 [25]: > 100 µM (inactive)
GI50 [26]: > 100 µM (inactive)
GI50 [27]: > 100 µM (inactive)
GI50 [28]: > 100 µM (inactive)
GI50 [29]: > 10 µM (inactive)
GI50 [30]: > 100 µM (inactive)
GI50 [31]: > 100 µM
GI50 [32]: > 100 µM (inactive)
GI50 [33]: > 100 µM (inactive)
GI50 [34]: > 100 µM (inactive)
GI50 [35]: > 100 µM (inactive)
GI50 [36]: > 100 µM (inactive)
GI50 [37]: > 100 µM (inactive)
GI50 [38]: > 100 µM (inactive)
GI50 [39]: > 100 µM (inactive)
GI50 [40]: > 100 µM (inactive)
GI50 [41]: > 100 µM (inactive)
GI50 [42]: > 100 µM (inactive)
GI50 [43]: > 100 µM (inactive)
GI50 [44]: > 100 µM (inactive)
GI50 [45]: > 100 µM (inactive)
GI50 [46]: > 100 µM (inactive)
GI50 [47]: > 100 µM (inactive)
GI50 [49]: > 100 µM (inactive)
GI50 [50]: > 100 µM (inactive)
GI50 [57]: > 100 µM (inactive)
GI50 [52]: > 100 µM (inactive)
GI50 [53]: > 100 µM (inactive)
GI50 [54]: > 100 µM (inactive)
